Patent publication US10806711B2 (priority 2011, dated 2020)
Entries after “also recorded” stand apart in the source; their conditions may differ.

Assays:
[1] = tested on: HL-1 cells; type: cell-based
Method: Cell Viability Assays—Cell viability was assessed using the ApoTox-Glo Triplex Assay (Promega, Madison, Wis.) per manufacturer's instructions. Briefly, HL-1 cells were seeded in 96 well plates at a density of 1×10^4 cells/well and allowed to grow overnight in Claycomb media supplemented with 10% FBS, 100 U/ml penicillin/streptomycin, and 2 mM L-glutamine. […] GF-AFC viability was then added to ApoTox-Glo Assay Buffer at a ratio of 10 μl GF-AFC to 2.0 ml Assay Buffer and 20 μl of this mixture was added to each well and cells were incubated at 37° C. for 30 minutes. Fluorescence was measured at 400 nm (ex)/505 nm (em) and the data was normalized to untreated control cells.

[2] = tested on: isolated ventricular myocytes; experiment: Myocyte Ca2+ transient and cytosolic Ca2+ measurement; type: cell-based, mouse
Method: Isolation of ventricular myocytes—Hearts from WT mice (12-week old) were perfused on the Langendorff system with a modified Krebs-Henseleit buffer (KHB) composed of (mM) NaCl 118, KCl 5.4, HEPES 10, NaH2PO4 0.33, MgCl2 2, glucose 10, taurine 30, butanedione monoxime 10 (pH=7.4). Then an enzyme solution (KHB containing 0.7 mg/ml type II collagenase, 0.1% BSA and 25 μM CaCl2) was used to digest the hearts for 10 min. Finally, ventricles of the hearts were excised, minced and filtered to obtain isolated cells. After sufficient sedimentation, the supernatant was removed and the cells were resuspended.
Myocyte Ca^2+ transient and cytosolic Ca^2+ measurement—Myocytes were loaded with Fluo-4 acetoxymethyl ester (7 μM) for 20 min at room temperature, followed by a 10 min wash with Tyrode's solution, and then placed onto a plexiglass chamber for recording. For Ca^2+ transient measurements, myocytes were excited under 0.5 Hz and 3 Hz field stimulation, and the fluorescence signals were obtained using a Nikon TE 2000 microscope and collected through an InCyt Standard photometry system. For cytosolic Ca^2+ analysis in quiescent myocytes, a Zeiss LSM 510 confocal microscope was used to record fluorescent images from resting myocytes. Line-scan mode was applied at 3.07 ms intervals with 512 pixels spaced at 0.056 μm. Drugs were dissolved in Tyrode's solution and perfused into the chamber. Images of myocytes were recorded every 30 s after drug application. Data analysis was performed using Clampfit 9.2 and Image J 1.44 software.
Water soluble probenecid was used for all of the myocyte experiments.

[3] = tested on: isolated ventricular myocytes; experiment: Myocyte contractility measurement; type: cell-based, mouse; conditions: ruthenium red pretreatment, 10^−7 M probenecid
Method: Isolation of ventricular myocytes—Hearts from WT mice (12-week old) were perfused on the Langendorff system with a modified Krebs-Henseleit buffer (KHB) composed of (mM) NaCl 118, KCl 5.4, HEPES 10, NaH2PO4 0.33, MgCl2 2, glucose 10, taurine 30, butanedione monoxime 10 (pH=7.4). Then an enzyme solution (KHB containing 0.7 mg/ml type II collagenase, 0.1% BSA and 25 μM CaCl2) was used to digest the hearts for 10 min. Finally, ventricles of the hearts were excised, minced and filtered to obtain isolated cells. After sufficient sedimentation, the supernatant was removed and the cells were resuspended. Myocyte contractility measurement—Myocytes were put on a plexiglass chamber containing a Tyrode's solution composed of (mM) NaCl 140, KCl, 5.4, MgCl2 1, CaCl2 1.8, HEPES 5, glucose 10 (pH=7.4). Myocytes were excited under 0.5 Hz field stimulation. After reaching the steady state, myocyte shortening and the rates of shortening (+dL/dt) and relengthening (−dL/dt) were imaged with a CCD camera and monitored by a video-edge detector. Drugs were dissolved in Tyrode's solution and perfused into the chamber. Data were continuously collected through the PCLAMP 9 software. Water soluble probenecid was used for all of the myocyte experiments.

## CC(C)NCC(O)c1ccc(O)c(O)c1 (stereo not shown) [isoproterenol]
[1]; 1.0 mM, 24 hours
  cell death at 24 hours, compared with H2O2 positive control: substantial cell death; also recorded: indistinguishable from H2O2 positive controls
  cells still viable: less than 20%
[1]; 1.0 mM, after 4 and 8 hours of treatment
  cell death: significant amount of cell death
[1]; probenecid at supraphysiological, isoproterenol at clinically relevant concentrations
  cell death in HL-1 cells (Example 3 summary): increased cell death

## C/C=C(/C)C(=O)O[C@H]1C(C)=C2[C@H]([C@@H]1OC(=O)CCCCCCC)[C@@](C)(OC(C)=O)C[C@H](OC(=O)CCC)[C@@]1(O)[C@H]2OC(=O)[C@@]1(C)O [thapsigargin]
[2]; thapsigargin 10^−6 M pretreatment 15 minutes, 10^−7 M probenecid
  effect on the change in cytosolic Ca2+ by probenecid: abolished

## N.N.N.N.N.N.N.N.N.N.N.N.N.N.[Cl-].[Cl-].[Cl-].[Cl-].[Cl-].[Cl-].[O-2].[O-2].[Ru+3].[Ru+3].[Ru+4] [ruthenium red]
[3]
  effect of pretreatment on probenecid's effect on myocyte contractility: completely abolished
[2]; ruthenium red 1 μM applied, 0.1 μM probenecid
  effect on the increase of cytosolic Ca2+ by probenecid: fully blocked
